{"source": "patent US6984499B2", "about": "“Method and apparatus for concurrently detecting pathogenic organisms and antimicrobial susceptibility” (IDEXX Laboratories, Inc., priority 1997, dated 2006)", "key": {"[1]": {"tested_on": "primary gram negative uropathogens", "assay": "five-well device (TVB, UTI, AMO, AMC, ENR wells), fluorescence, four urine samples", "type": "cell-based", "conditions": "Sample 2; incubation 18 hours", "from_the_text": "In a presently preferred embodiment, this invention comprises a device having a series of 5 test wells. Each well comprises a specific medium coupled with a fluorogenic enzyme substrate for the detection of target bacteria and their respective antibiotic resistance patterns. The wells produce a fluorescent signal when bacteria grow in them.\nThe wells were termed a total viable bacteria “TVB” well, a primary gram negative urinary tract infection organisms “UTI” well, and individual wells which contain an antimicrobial susceptibility media with an antibiotic amoxicillin “AMO”, clavulanic acid/amoxicillin (Clavamox®) “AMC”, or enrofloxacin (Baytril®) “ENR”.\nThe total viable bacteria “TVB” well, when it fluoresces, indicates the presence of bacteria in the urine sample. The “UTI” well fluoresces when the common Gram-negative uropathogens (E. coli, Klebsiella or Enterobacter spp., and P. mirabilis) are present in the urine sample. […]\nFor each device, after an incubation period of 18 hours, the wells were examined for the development of fluorescence and conclusions about the presence of primary urinary pathogens and their susceptibility to the antimicrobial agents employed were drawn."}, "[2]": {"tested_on": "gram negative urinary pathogens (Escherichia coli, Klebsiella spp, Enterobacter spp., Proteus spp.)", "assay": "standard Kirby-Bauer antimicrobial susceptibility assay, amoxicillin", "type": "cell-based, feline and canine urine specimens", "conditions": "Total of 58", "protocol": "For comparison a traditional microbiological culture, bacterial identification technique, and antimicrobial susceptibility test were performed. A portion of 1 μl urine specimen was streaked onto a blood agar plate; the plate was then incubated at 35° C. for 24–48 hours. […] The susceptibility of amoxicillin of the gram negative urinary pathogens (Escherichia coli, Klebsiella spp, Enterobacter supp., and Proteus spp.) Were performed by standard Kirby-Bauer antimicrobial susceptibility assay."}, "[3]": {"tested_on": "gram negative urinary pathogens (Escherichia coli, Klebsiella spp, Enterobacter spp., Proteus spp.)", "assay": "AMO medium (amoxicillin) in urinary tract infection device", "type": "cell-based, feline and canine urine specimens", "protocol": "The medium is formulated according to techniques well known to those skilled in the art. The medium comprises UTI media with amoxicillin at a concentration of 8 mg/liter.\nA total of 303 feline and canine urine specimens were collected from the animals suspected of having urinary tract infection were tested with the “AMO” medium. A 50 μl aliquot of the urine specimen was added to 10 ml of sterile saline solution (0.85% NaCl solution). A 100 μl of the diluted urine specimens were added to the “AMO” medium in the urinary tract infection device; the device was then incubated at 35° C. for 24 hours."}, "[4]": {"tested_on": "gram negative urinary pathogens (Escherichia coli, Klebsiella spp, Enterobacter spp., Proteus spp.)", "assay": "ENR medium (enrofloxacin) in urinary tract infection device", "type": "cell-based, feline and canine urine specimens", "protocol": "The medium is formulated according to techniques well known to those skilled in the art. The media comprises UTI media with enrofloxacin (ENR) at a concentration of 2.0 mg/liter.\nA total of 303 feline and canine urine specimens were collected from the animals suspected of having urinary tract infection were tested with the “ENR” medium. A 50 μl aliquot of the urine specimen was added to 10 ml of sterile saline solution (0.85% NaCl solution). A 100 μl of the diluted urine specimens was added to the “ENR” medium in the urinary tract infection device; the device was then incubated at 35° C. for 24 hours."}, "[5]": {"tested_on": "gram negative urinary pathogens (Escherichia coli, Klebsiella spp, Enterobacter spp., Proteus spp.)", "assay": "standard Kirby-Bauer antimicrobial susceptibility assay, enrofloxacin", "type": "cell-based, feline and canine urine specimens", "conditions": "Total of 58", "protocol": "For comparison a traditional microbiological culture, bacterial identification technique, and antimicrobial susceptibility test were performed. A portion of 1 μl urine specimen was streaked onto a blood agar plate; the plate was then incubated at 35° C. for 24–48 hours. […] The susceptibility of enrofloxacin of the gram negative urinary pathogens (Escherichia coli, Klebsiella spp, Enterobacter spp., and Proteus spp.) were performed by standard Kirby-Bauer antimicrobial susceptibility assay."}, "Klebsiella pneumoniae [6]": {"tested_on": "Klebsiella pneumoniae", "assay": "CR30 medium (CR30M) microdilution susceptibility", "type": "cell-based", "conditions": "K. pneumoniae", "protocol": "(§1) The medium is formulated according to techniques well known to those skilled in the art. The medium comprises the uropathogen specific medium with 32 mg/liter of cephalothin.\n(§2) The representative primary gram negative urinary pathogens including Escherichia coli ATCC 25922, Klebsiella pneumoniae, Enterobacter cloacae ATCC 13047, and Proteus mirabilis were used to determine the antimicrobial efficacy of cephalothin in CR 30 medium in reaction to the standard Muller Hinton microdilution antimicrobial susceptibility ((NCCLS Antimicrobial Susceptibility Testing/SC3, January, 1996). Cephalothin was prepared in both standard Muller Hinton broth (MHB) and CR30 medium (CR30M) at the following concentrations: 128, 64, 32, 16, 8, 4, 2, and 0 mg/liter. Bacterial inocula used for each level of inoculation were 1–5×10^4 cfu/100 μl. The assays were performed in microliter wells at 35° C. for 18 hours.\n(§3) The bacteria are defined as “resistant” to cephalothin if the organism has an MIC of ≧32 μg/ml, as “intermediate resistant” if the MIC is 16 μg/ml, and as “susceptible” if the MIC is 8 μg/ml as determined by the standard Muller Hinton broth (Manual of Clinical Microbiology, 6th ed. 1995; ASM Press)."}, "Proteus mirabilis [7]": {"tested_on": "Proteus mirabilis", "assay": "CR30 medium (CR30M) microdilution susceptibility", "type": "cell-based", "conditions": "P. mirabilis", "protocol": "as §1, §2, §3"}, "[8]": {"tested_on": "Enterobacter cloacae ATCC 13047", "assay": "CR30 medium (CR30M) microdilution susceptibility", "type": "cell-based", "conditions": "E. cloacae", "protocol": "as §1, §2, §3"}, "[9]": {"tested_on": "Escherichia coli ATCC 25922", "assay": "CR30 medium (CR30M) microdilution susceptibility", "type": "cell-based", "conditions": "E. coli", "protocol": "as §1, §2, §3"}, "Klebsiella pneumoniae [10]": {"tested_on": "Klebsiella pneumoniae", "assay": "standard Muller Hinton broth (MHB) microdilution susceptibility", "type": "cell-based", "conditions": "K. pneumoniae", "protocol": "as §2, §3"}, "Proteus mirabilis [11]": {"tested_on": "Proteus mirabilis", "assay": "standard Muller Hinton broth (MHB) microdilution susceptibility", "type": "cell-based", "conditions": "P. mirabilis", "protocol": "as §2, §3"}, "[12]": {"tested_on": "Enterobacter cloacae ATCC 13047", "assay": "standard Muller Hinton broth (MHB) microdilution susceptibility", "type": "cell-based", "conditions": "E. cloacae", "protocol": "as §2, §3"}, "[13]": {"tested_on": "Escherichia coli ATCC 25922", "assay": "standard Muller Hinton broth (MHB) microdilution susceptibility", "type": "cell-based", "conditions": "E. coli", "protocol": "as §2, §3"}, "[14]": {"conditions": "Susceptible by Kirby-Bauer Assay"}}, "data": [{"smiles": "CC1(C)S[C@@H]2[C@H](NC(=O)[C@H](N)c3ccc(O)cc3)C(=O)N2[C@H]1C(=O)O", "note": "[Amoxicillin, amoxicillin]", "values": [{"measurement": "susceptibility of primary gram negative uropathogens to the antimicrobial agent", "setting": "[1]", "value": "resistant"}, {"measurement": "number of specimens Resistant by Kirby-Bauer Assay", "setting": "[2]", "value": 22}, {"measurement": "number of specimens Susceptible by Kirby-Bauer Assay", "setting": "[2]", "value": 36}, {"measurement": "number of specimens Resistant in AMO Medium", "setting": "[3]; Resistant by Kirby-Bauer Assay", "value": 21}, {"measurement": "number of specimens Susceptible in AMO Medium", "setting": "[3]; Resistant by Kirby-Bauer Assay", "value": 1}, {"measurement": "number of specimens Resistant in AMO Medium", "setting": "[3]; [14]", "value": 1}, {"measurement": "number of specimens Susceptible in AMO Medium", "setting": "[3]; [14]", "value": 35}, {"measurement": "number of specimens Resistant in AMO Medium", "setting": "[3]; Total of 58", "value": 22}, {"measurement": "number of specimens Susceptible in AMO Medium", "setting": "[3]; Total of 58", "value": 36}]}, {"smiles": "CCN1CCN(c2cc3c(cc2F)c(=O)c(C(=O)O)cn3C2CC2)CC1", "note": "[Enrofloxacin, enrofloxacin]", "values": [{"measurement": "number of specimens Resistant in ENR Medium", "setting": "[4]; Resistant by Kirby-Bauer Assay", "value": 5}, {"measurement": "number of specimens Susceptible in ENR Medium", "setting": "[4]; Resistant by Kirby-Bauer Assay", "value": 1}, {"measurement": "number of specimens Resistant in ENR Medium", "setting": "[4]; [14]", "value": 2}, {"measurement": "number of specimens Susceptible in ENR Medium", "setting": "[4]; [14]", "value": 50}, {"measurement": "number of specimens Resistant in ENR Medium", "setting": "[4]; Total of 58", "value": 7}, {"measurement": "number of specimens Susceptible in ENR Medium", "setting": "[4]; Total of 58", "value": 51}, {"measurement": "susceptibility of primary gram negative uropathogens to the antimicrobial agent", "setting": "[1]", "value": "susceptible"}, {"measurement": "number of specimens Resistant by Kirby-Bauer Assay", "setting": "[5]", "value": 6}, {"measurement": "number of specimens Susceptible by Kirby-Bauer Assay", "setting": "[5]", "value": 52}]}, {"smiles": "CC(=O)OCC1=C(C(=O)O)N2C(=O)[C@@H](NC(=O)Cc3cccs3)[C@H]2SC1", "note": "[cephalothin]", "values": [{"measurement": "categorical susceptibility to cephalothin", "setting": "Klebsiella pneumoniae [6]", "value": "susceptible"}, {"measurement": "categorical susceptibility to cephalothin", "setting": "Proteus mirabilis [7]", "value": "susceptible"}, {"measurement": "categorical susceptibility to cephalothin", "setting": "[8]", "value": "resistant"}, {"measurement": "categorical susceptibility to cephalothin", "setting": "[9]", "value": "susceptible"}, {"measurement": "categorical susceptibility to cephalothin", "setting": "Klebsiella pneumoniae [10]", "value": "susceptible"}, {"measurement": "categorical susceptibility to cephalothin", "setting": "Proteus mirabilis [11]", "value": "susceptible"}, {"measurement": "categorical susceptibility to cephalothin", "setting": "[12]", "value": "resistant"}, {"measurement": "categorical susceptibility to cephalothin", "setting": "[13]", "value": "susceptible"}]}]}
